The values below are quoted from earlier work in publication PMC10427817, “Bioactivities of β-mangostin and its new glycoside derivatives synthesized by enzymatic reactions” (Royal Society Open Science, 2023).

As usually defined, the IC50 is the concentration needed to halve the response being measured.

The structures appear in SMILES notation. Where two headings read alike, the source gives them in different places.

One series deals with AChE (Homo sapiens, UniProt P22303). The settings on record: ref 32; cited from earlier work.
In a further series the test system is BuChE. The settings on record: cited from earlier work.

AChE, sequence (P22303 32-614): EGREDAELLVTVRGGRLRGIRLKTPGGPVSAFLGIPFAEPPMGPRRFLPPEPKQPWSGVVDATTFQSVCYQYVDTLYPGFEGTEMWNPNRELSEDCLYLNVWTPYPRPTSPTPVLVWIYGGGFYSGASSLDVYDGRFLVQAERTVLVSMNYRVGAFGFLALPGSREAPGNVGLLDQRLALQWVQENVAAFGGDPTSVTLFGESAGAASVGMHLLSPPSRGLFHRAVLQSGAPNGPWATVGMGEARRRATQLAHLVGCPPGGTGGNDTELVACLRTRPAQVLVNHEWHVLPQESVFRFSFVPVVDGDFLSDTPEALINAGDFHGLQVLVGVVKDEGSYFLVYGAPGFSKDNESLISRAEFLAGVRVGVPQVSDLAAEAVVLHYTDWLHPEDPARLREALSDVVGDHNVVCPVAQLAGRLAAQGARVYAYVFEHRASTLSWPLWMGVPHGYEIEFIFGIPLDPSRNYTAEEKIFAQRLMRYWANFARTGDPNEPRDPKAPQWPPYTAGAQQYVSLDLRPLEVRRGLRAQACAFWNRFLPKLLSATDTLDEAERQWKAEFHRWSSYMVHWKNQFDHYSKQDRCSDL

As to `O=c1c2ccccc2oc2cc(OCCN3CCCC3)cc(O)c12` [3-(2-(pyrrolidinyl)ethoxy)-1-hydroxy-9H-xanthen-9-one], the IC50 at AChE is 2.4 µM; in the series on BuChE (ref 32), 31.2 µM.

On to `COc1c(O)cc2oc3cc(O)c(CC(O)C(C)(C)O)c(O)c3c(=O)c2c1CCC(C)C` (stereo not drawn) [compound (5), 2-(2,3-dihydroxy-3-methylbutyl)-1,3,6-trihydroxy-8-isopentyl-7-methoxy-9H-xanthen-9-one], for which the IC50 in the series with BuChE (ref 31) was 7.55 µM.
